From patent US20220168309A1 (F-STAR THERAPEUTICS, INC., priority 2019, published 2022)
Where two headings read alike, the source gives them in different places.

Legend:
[1] = target: STING (Homo sapiens, UniProt Q86WV6); experiment: STING antagonist activity, cell-based ISG54 promoter-reporter luciferase measurement of IRF activity (THP-1 dual / RAW-ISG cells); details: Antagonist Activity of Exemplary Compounds, cell line and agonist not given
In short: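 THP-1 dual or RAW-ISG cells (50,000/well) pretreated 1 h with compound (10 to 0.01 uM), then stimulated with SB 11285 (30 nM or 1 μM) or 2′3′-cGAMP (10 ug/mL or lipo mixture) for 18–20 h at 37° C. IRF-driven luciferase read by Quanti-Luc; % inhibition versus untreated or DMSO wells, IC50 by curve fit.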

[2] = test system: cGAS-STING-IRF/NF-κB signaling pathway; experiment: Inhibition of dsDNA-induced cGAS-STING-IRF/NF-κB signaling; type: cell-based
Procedure: (§1) Evaluation of activity of compounds in THP-1 cells for their inhibition of STING, LPS, ppp-dsRNA & Poly IC induction: THP-1 cells were treated with different concentrations (10 uM to 0.01 uM) of Compounds for 1 h followed by STING/TLR3/TLR4/RIG-I/TLR7/9 activation by corresponding agonists. Lipofectamine (LTX) was used along with dsRNA, 2′-3′cGAMP & VACV-70. The cells were then incubated for 20 hours @ 37° C. before measuring IRF activation by using Quanti-Luc. The % inhibition was calculated as 100-[(luminescence of COI treated well/luminescence of non COI treated well)/100]×100. Cytotoxicity was measured by using Cell Titer Glo.

[3] = test system: RIG-I-IRF/NF-κB signaling pathway; experiment: Inhibition of 3p-hpRNA-induced RIG-I-IRF/NF-κB signaling; type: cell-based
Procedure: as §1

[4] = test system: TLR7/9 signaling pathways; experiment: Effect on TLR7/9 signaling; type: cell-based
Procedure: as §1

[5] = test system: TLR4/NF-κB activation; experiment: LPS-induced TLR4/NF-κB activation in RAW-WT cells; type: cell-based

Sequence of STING (Q86WV6 whole entry): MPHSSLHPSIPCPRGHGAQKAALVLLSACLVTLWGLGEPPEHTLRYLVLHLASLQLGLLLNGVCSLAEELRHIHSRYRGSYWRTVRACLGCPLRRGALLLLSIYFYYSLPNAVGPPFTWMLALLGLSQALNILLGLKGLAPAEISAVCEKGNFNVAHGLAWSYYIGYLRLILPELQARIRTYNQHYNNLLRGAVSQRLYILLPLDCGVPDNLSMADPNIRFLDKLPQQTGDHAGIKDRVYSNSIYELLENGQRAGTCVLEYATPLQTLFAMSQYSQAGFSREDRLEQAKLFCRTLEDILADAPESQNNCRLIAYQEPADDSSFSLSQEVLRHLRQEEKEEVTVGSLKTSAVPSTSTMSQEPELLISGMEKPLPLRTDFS

Compound | IC50 ([1]; read-out: IC50) | also measured
COC(=O)CCCCCCCCCCCCCCCn1cnc2nc(Cl)nc(Cl)c21 [Compound 6] |  | IC50 [1]: 0.001 to 1 µM; inhibition of dsDNA-induced cGAS-STING-IRF/NF-κB signaling pathway [2]: weakly inhibits; inhibition of 3p-hpRNA-induced RIG-I-IRF/NF-κB signaling pathway [3]: weakly inhibits; effect on TLR7/9 signaling pathways [4]: does not affect; inhibition of LPS-induced TLR4/NF-κB activation [5]: seems to inhibit
COC(=O)CCCCCCN(C)CCCCCCCCn1c(C)nc2nc(Cl)nc(S(=O)(=O)C(C)C)c21 [Compound 152, Methyl 7-((8-(2-chloro-6-(isopropylsulfonyl)-8-methyl-7H-purin-7-yl)octyl)(methyl)-amino)heptanoate] | 1 to 5 µM | 
COC(=O)CCCN1CCN(CCCCCCn2c(C)nc3nc(Cl)nc(Cl)c32)CC1 [Compound 153, Methyl 4-(4-(6-(2,6-dichloro-8-methyl-7H-purin-7-yl)hexyl)piperazin-1-yl)butanoate] | 1 to 5 µM | 
COC(=O)CCCCCCCCCCCCCCCn1c(CN2CCOCC2)nc2nc(Cl)nc(Cl)c21 [Compound 154, methyl 16-(2,6-dichloro-8-(morpholinomethyl)-7H-purin-7-yl)hexadecanoate] | 0.001 to 1 µM | 
COC(=O)CCCCCCNCCCCCCCCn1c(C)nc2nc(Cl)nc(Cl)c21 [Compound 155, Methyl 7-((8-(2,6-dichloro-8-methyl-7H-purin-7-yl)octyl)amino)heptanoate] | 0.001 to 1 µM | 
COC(=O)CCCCCOC1CCN(CCCCCCn2c(C)nc3nc(Cl)nc(Cl)c32)CC1 [Compound 156, Methyl 6-((1-(6-(2,6-dichloro-8-methyl-7H-purin-7-yl)hexyl)piperidin-4-yl)oxy)hexanoate] | 1 to 5 µM | 
Cc1nc2nc(Cl)nc(Cl)c2n1CCCCCCCCCCCCCCCC#N [Compound 157, 16-(2,6-dichloro-8-methyl-7H-purin-7-yl)hexadecanenitrile] | 0.001 to 1 µM | 
Cc1nc2nc(Cl)nc(S(=O)(=O)C(C)C)c2n1CCCCCCCCCCCCCCCC(=O)OCC1CC1 [Compound 158, Cyclopropylmethyl 16-(2-chloro-6-(isopropylsulfonyl)-8-methyl-7H-purin-7-yl)hexadecanoate] | 0.001 to 1 µM | 
Cc1nc2nc(Cl)nc(S(=O)(=O)C(C)C)c2n1CCCCCCCCCCCCCCCC(=O)OCC(C)C [Compound 159, Isobutyl 16-(2-chloro-6-(isopropylsulfonyl)-8-methyl-7H-purin-7-yl)hexadecanoate] | 1 to 5 µM | 
[2H]C([2H])([2H])OC(=O)CCCCCCCCCCCCCCCn1c(C)nc2nc(Cl)nc(S(=O)(=O)C(C)C)c21 [Compound 160, Methyl-d3 16-(2-chloro-6-(isopropylsulfonyl)-8-methyl-7H-purin-7-yl)hexadecanoate] | 0.001 to 1 µM | 
COC(=O)CCCCCCCCCCCCCCn1c(C)nc2nc(Cl)nc(Cl)c21 [Compound 161, Methyl 15-(2,6-dichloro-8-methyl-7H-purin-7-yl)pentadecanoate] | 0.001 to 1 µM | 
COC(=O)CCCCCCCCCCCCCCn1c(C)nc2nc(Cl)nc(S(=O)(=O)C(C)C)c21 [Compound 162, Methyl 15-(2-chloro-6-(isopropylsulfonyl)-8-methyl-7H-purin-7-yl)pentadecanoate] | 0.001 to 1 µM | 
Cc1nc2nc(Cl)nc(Cl)c2n1CCCCCCCCCCCCCCCCN [Compound 163, 16-(2,6-dichloro-8-methyl-7H-purin-7-yl)hexadecan-1-amine] | 0.001 to 1 µM | 
Cc1nc2nc(Cl)nc(S(=O)(=O)C(C)C)c2n1CCCCCCCCCCCCCCCC#N [Compound 164, 16-(2-chloro-6-(isopropylsulfonyl)-8-methyl-7H-purin-7-yl)hexadecanenitrile] | 0.001 to 1 µM | 
Cc1nc2nc(Cl)nc(S(=O)(=O)C(C)C)c2n1CCCCCCCCCCCCCCCc1n[nH]c(=O)o1 [Compound 165, 5-(15-(2-chloro-6-(isopropylsulfonyl)-8-methyl-7H-purin-7-yl)pentadecyl)-1,3,4-oxadiazol-2(3H)-one] | 0.001 to 1 µM | 
CC(=O)NCCCCCCCCCCCCCCCCn1c(C)nc2nc(Cl)nc(Cl)c21 [Compound 166, N-(16-(2,6-dichloro-8-methyl-7H-purin-7-yl)hexadecyl)acetamide] | 0.001 to 1 µM | 
Cc1nc2nc(Cl)nc(S(=O)(=O)C(C)C)c2n1CCCCCCCCCCCCCCCc1noc(=O)n1C [Compound 167, 3-(15-(2-chloro-6-(isopropylsulfonyl)-8-methyl-7H-purin-7-yl)pentadecyl)-4-methyl-1,2,4-oxadiazol-5(4H)-one] | 0.001 to 1 µM | 
COC(=O)CCCCCCNCCCCCCCCn1c(C)nc2nc(Cl)nc(S(=O)(=O)C(C)C)c21 [Compound 168, methyl 7-((8-(2-chloro-6-(isopropylsulfonyl)-8-methyl-7H-purin-7-yl)octyl)amino)heptanoate] | 0.001 to 1 µM | 
